Consider one compound from US20020025944A1, “Use of clioquinol for the therapy of Alzheimer's disease” (priority 2000, published 2002).

Molecules are shown by their SMILES. Like-named read-outs stand apart in the source and are kept apart here.

For one data set, the target named is Aβ 1-40 aggregates (Homo sapiens, UniProt P05067). Briefly: resolubilization of metal- or pH-induced Aβ aggregates on 0.2μ nylon membrane. It counts as biochemical. The conditions noted are these: 2 μM chelator in TBS, relative to TBS alone. On the procedure: Aggregates were transferred to a 0.2μ nylon membrane by filtration. The aggregates were then washed (200 μl/well) with TBS alone, TBS containing 2 μM EDTA, or TBS containing 2 μM clioquinol. The membrane was fixed, probed with the anti-Aβ monoclonal antibody 6E10, and developed for exposure to ECL-film. […] Values are expressed as a percentage of Aβ signal after washing with TBS alone.
Aβ 1-40 aggregates, sequence (P05067 672-711): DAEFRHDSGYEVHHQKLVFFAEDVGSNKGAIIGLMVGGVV
First, the efficacy of clioquinol's ability to resolubilize Aβ aggregates, formed in vitro by the action of Cu(II) or Zn(II) upon Aβ 1-40, was examined. […] Aβ (10 ng/well in buffered saline) aggregation was induced by addition of ZnCl2 (5 μM) or acidic conditions (pH 5.5). Aggregates were transferred to a 0.2μ nylon membrane by filtration. The aggregates were then washed (200 μl/well) with TBS alone, TBS containing 2 μM EDTA or TBS with 2 μM clioquinol. The membrane was then fixed, probed with anti-Aβ monoclonal antibody 6E10 and developed for exposure to ECL-film.
Values are expressed as a % of Aβ signal remaining on the filter after washing with TBS alone.

The conditions of data set [1]: rats, oral dose of 200 mg/kg; cited from earlier work.
For data set [2] the following is noted: chelation of zinc; cited from earlier work.
For data set [3] the following is noted: cited from earlier work.
The conditions of data set [4]: cited from earlier work; for blood brain barrier passage: in vivo.
The target in a further data set is Aβ1-40 (Homo sapiens, UniProt P05067). Put plainly: Zn(II)-induced Aβ1-40 aggregation, supernatant protein by BCA assay. It counts as biochemical. The conditions noted are these: 20 mM HEPES, pH 7.4, 30 minutes at 37° C. The protocol:
Aβ1-40 was incubated with no metal, Zn (II), Zn (II) +clioquinol, DMSO or clioquinol (120 μM) in 20 mM HEPES, […], pH 7.4. Samples were incubated for 30 minutes at 37° C. and then centrifuged at 10,000 g for 20 minutes and the protein content of the supernatant determined using the BCA assay. Clioquinol was dissolved in DMSO prior to adding 20 μM to the samples. […] DMSO had no effect on Aβ aggregation. Results are mean ±SD, n=3.

Data set [5] can be described thus: dissolving clioquinol: n-decane / PBS partitioning. It counts as physicochemical. The protocol:
In order to obtain a solution of clioquinol in PBS, the following protocol was followed: 5.3 grams of clioquinol was suspended with agitation in 200 milliliter of n-decane. […] Next, the phases were allowed to separate. The lower phase ([…]) was collected and filtered to remove the residue which had formed at the phase interface upon extraction with the organic solvent. […] This number was arrived at based on two assumptions: (1) 2% of the clioquinol was dissolved in the n-decane; and (2) the partitioning coefficient is 1/1750 with PBS at 1:1 mixture of n-decane to […].

The conditions of data set [6]: sustained treatment; cited from earlier work.
For data set [7] the following is noted: cited from earlier work. This is another data set of the same source.
Data set [8] relates to Aβ deposits from AD-affected brain. Put plainly: extraction of Aβ from post-mortem AD-affected brain tissue, western blot. It counts as biochemical, human. The text has this: To test this hypothesis, the brain tissue preparation of Kuo and colleagues was replicated, but phosphate-buffered saline pH 7.4 (PBS) was substituted as the extraction buffer, achieving similar results. Highly sensitive and specific anti-Aβ monoclonal antibodies (Ida et al., (1996)) were used to assay Aβ extraction by western blot. Next, the extraction of the same material with PBS was repeated in the presence of clioquinol and determined that the presence of clioquinol increased the amount of Aβ in the soluble extract several-fold (FIGS. 1, 2, 3A, and 3B).
Next, the ability of clioquinol to extract Aβ deposits from human brain was determined. […] Fragments of prefrontal cortex from individual post-mortem samples with the histopathological diagnosis of AD were homogenized in PBS, ph 7.4, and then pelleted after centrifugation.
The pellets were then washed with agitation twice for 30 minutes, 4° C., with PBS or PBS containing clioquinol (100% =0.8 μM clioquinol). The suspension was then pelleted (10,000 g for 30 minutes) and the supernatant removed (S1) for western blot analysis using Aβ-specific antibodies.
FIGS. 3A and 3B show the western blot and accompanying densitometric analysis of resolubilization of Aβ from AD-affected brain. […] Synthetic peptide standards that were used to calibrate densitometric quantification are shown in the two right-most lanes. […]
(A western blot detects proteins with antibodies after separation by electrophoresis.)

The conditions of data set [9]: with PBS at 1:1 mixture of n-decane; cited from earlier work.
The conditions of data set [10]: rats and mice, within one hour of ingestion; cited from earlier work.
The conditions of data set [11]: monkeys, oral dose of 500 mg/kg; cited from earlier work.
For data set [12] the following is noted: dogs, oral dose of 200 mg/kg; cited from earlier work.

Aβ1-40, sequence (P05067 672-711 limits assumed): as the sequence (P05067 672-711) above

With `Oc1c(I)cc(Cl)c2cccnc12` [clioquinol, 5-chloro-7-iodo-8-hydroxyquinoline], the “resolubilized Cu(II)-induced Aβ precipitate” value at Aβ 1-40 aggregates was 85%. The “resolubilized Zn(II)-induced Aβ precipitate” value on Aβ 1-40 aggregates stood at 50%. On Aβ 1-40 aggregates, the “resolubilized pH 5.5-induced Aβ precipitate” value is 10%. The plasma levels is 5 µM in data set [1], 20 to 70 µM in [11] and 10 to 30 µM in data set [12]. In addition, the “K(Zn)” value in data set [2] is 12.5. Also, in data set [3] (in vivo), the general toxicity profile result is listed as “low general toxicity profile”. In data set [3] (many mammalian species, including rat and mouse), the “safety in mammalian species” value is “appears to be safe”. Besides, in [4] (bolus dose), the “removal of a bolus dose from the brain” value was “almost completely removed from the brain within three hours”. The “blood brain barrier passage” value in [4] is given as “freely permeable into the brain”; in [4] (listed as Clioquinol), “crosses the blood brain barrier”. Also, the “effect on Zn-induced Aβ1-40 aggregation” value on Aβ1-40 was “attenuated Zn-induced Aβ1-40 aggregation”. Further, the “fraction of clioquinol dissolved in n-decane” value in data set [5] (5.3 grams suspended in 200 milliliter n-decane) was determined as 2%. Further, the “concentration of clioquinol in the PBS” value in data set [5] (PBS pH 7.4 after 1:1 extraction of n-decane supernatant) is reported as 800 nanamolar. In addition, the “dose causing subacute myelo-optic neuritis” value in data set [6] was 10 mg/kg/day. Further, the excretion half life in data set [7] (in vivo) was 1 to 3 h. In addition, the “time to reach peak plasma levels” value in data set [7] (oral ingestion) was ≤ 30 min. In addition, the “increase in solubilization of Aβ relative to PBS alone” value in data set [8] (1.12 μM clioquinol, sequential extraction) was 2.5 fold. In [8] (compared to buffer in the absence of chelators), the “proportion of Aβ re-dissolved from post-mortem AD affected brain tissue” value is recorded as “up to 70%”. In addition, the partitioning coefficient in data set [9] is 1/1750. Also, the blood levels in [10] was 1 to 10 µM.
